This passage reports Kd results from ChEMBL document CHEMBL3991601, “The target landscape of clinical kinase drugs” (Science, 2017).

Structures are written as SMILES. The source made the active and inactive calls. For most assays here, no stated cut-off is given here; in the data, actives have a measured Kd and inactives only a lower limit.

The target in experiment [1] is T1, Peroxisomal acyl-coenzyme A oxidase 3 (Homo sapiens, UniProt O15254).
T1 sequence (O15254 whole entry): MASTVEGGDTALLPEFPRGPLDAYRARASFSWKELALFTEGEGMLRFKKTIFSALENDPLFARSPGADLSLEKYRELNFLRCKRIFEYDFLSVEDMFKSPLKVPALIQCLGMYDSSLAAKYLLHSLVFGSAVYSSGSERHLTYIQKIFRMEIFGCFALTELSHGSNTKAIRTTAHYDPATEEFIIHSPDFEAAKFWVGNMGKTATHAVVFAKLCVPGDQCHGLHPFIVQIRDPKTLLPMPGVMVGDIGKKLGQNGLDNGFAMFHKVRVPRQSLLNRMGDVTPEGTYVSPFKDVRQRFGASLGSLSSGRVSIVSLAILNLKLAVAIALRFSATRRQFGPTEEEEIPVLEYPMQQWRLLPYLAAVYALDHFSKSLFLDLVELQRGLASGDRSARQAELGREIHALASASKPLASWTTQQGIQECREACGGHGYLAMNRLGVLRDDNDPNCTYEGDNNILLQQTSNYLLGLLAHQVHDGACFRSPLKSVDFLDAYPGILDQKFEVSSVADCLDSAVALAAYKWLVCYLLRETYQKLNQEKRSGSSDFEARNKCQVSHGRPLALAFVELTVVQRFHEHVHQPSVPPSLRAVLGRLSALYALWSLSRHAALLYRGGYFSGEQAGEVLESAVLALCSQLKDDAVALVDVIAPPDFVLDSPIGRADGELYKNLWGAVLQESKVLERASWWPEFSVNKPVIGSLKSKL

The target of experiment [2] is T2, Adenine phosphoribosyltransferase (Homo sapiens, UniProt P07741).
T2 sequence (P07741 whole entry): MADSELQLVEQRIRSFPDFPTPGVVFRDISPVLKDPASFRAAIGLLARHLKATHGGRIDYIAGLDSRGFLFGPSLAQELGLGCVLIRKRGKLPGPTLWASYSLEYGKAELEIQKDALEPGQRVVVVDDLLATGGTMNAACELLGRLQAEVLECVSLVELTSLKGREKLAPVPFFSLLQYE

Experiment [3] deals with Calcium/calmodulin-dependent protein kinase type II subunit delta (Homo sapiens, UniProt Q13557).
Chain of Calcium/calmodulin-dependent protein kinase type II subunit delta (Q13557 whole entry): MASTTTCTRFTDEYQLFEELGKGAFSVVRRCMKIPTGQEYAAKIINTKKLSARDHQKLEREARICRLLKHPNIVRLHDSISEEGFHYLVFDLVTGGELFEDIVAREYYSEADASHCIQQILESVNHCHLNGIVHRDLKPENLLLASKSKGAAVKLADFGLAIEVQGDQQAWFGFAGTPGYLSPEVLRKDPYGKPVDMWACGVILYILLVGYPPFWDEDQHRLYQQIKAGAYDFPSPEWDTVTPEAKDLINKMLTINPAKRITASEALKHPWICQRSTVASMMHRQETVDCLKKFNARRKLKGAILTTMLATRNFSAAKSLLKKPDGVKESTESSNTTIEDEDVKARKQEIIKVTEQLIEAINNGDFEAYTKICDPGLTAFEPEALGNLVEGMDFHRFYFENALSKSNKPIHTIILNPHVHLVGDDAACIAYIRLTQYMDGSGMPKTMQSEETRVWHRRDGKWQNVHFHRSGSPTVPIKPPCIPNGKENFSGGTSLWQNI
Experiment [4] has as its target T3, Ephrin type-B receptor 3 (Homo sapiens, UniProt P54753).
T3 sequence (P54753 whole entry): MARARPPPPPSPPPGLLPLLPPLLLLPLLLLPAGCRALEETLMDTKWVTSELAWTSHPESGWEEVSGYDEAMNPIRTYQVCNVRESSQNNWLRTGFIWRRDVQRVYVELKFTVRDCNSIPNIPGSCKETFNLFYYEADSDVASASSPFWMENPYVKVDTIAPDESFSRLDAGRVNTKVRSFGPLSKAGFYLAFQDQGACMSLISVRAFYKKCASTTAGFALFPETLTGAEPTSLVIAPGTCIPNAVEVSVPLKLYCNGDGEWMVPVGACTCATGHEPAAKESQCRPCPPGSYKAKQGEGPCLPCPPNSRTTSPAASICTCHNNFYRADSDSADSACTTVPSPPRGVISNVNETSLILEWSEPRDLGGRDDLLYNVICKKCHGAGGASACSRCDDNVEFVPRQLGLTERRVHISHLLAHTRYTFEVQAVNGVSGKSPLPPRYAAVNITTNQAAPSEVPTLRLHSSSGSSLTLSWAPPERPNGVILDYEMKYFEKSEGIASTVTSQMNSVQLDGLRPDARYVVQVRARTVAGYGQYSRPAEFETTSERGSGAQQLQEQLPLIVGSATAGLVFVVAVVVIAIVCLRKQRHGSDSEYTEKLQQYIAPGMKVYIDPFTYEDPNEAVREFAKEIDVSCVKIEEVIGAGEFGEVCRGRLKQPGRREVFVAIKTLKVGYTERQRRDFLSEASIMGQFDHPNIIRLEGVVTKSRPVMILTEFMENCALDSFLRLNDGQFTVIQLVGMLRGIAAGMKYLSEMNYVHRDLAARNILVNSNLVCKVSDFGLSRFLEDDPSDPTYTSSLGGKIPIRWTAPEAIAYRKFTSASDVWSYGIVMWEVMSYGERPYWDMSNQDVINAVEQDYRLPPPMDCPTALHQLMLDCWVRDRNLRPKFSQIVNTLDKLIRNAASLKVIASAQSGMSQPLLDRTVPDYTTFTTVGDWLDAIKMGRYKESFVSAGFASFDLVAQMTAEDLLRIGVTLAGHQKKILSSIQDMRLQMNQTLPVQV

The target of experiment [5] is GTP-binding protein 4 (Homo sapiens, UniProt Q9BZE4).
Experiment [6] has as its target Dual specificity mitogen-activated protein kinase kinase 2 (Homo sapiens, UniProt P36507).
Experiment [7] has as its target Mitogen-activated protein kinase 8 (Homo sapiens, UniProt P45983).
In experiment [8] the target is Mitogen-activated protein kinase 9 (Homo sapiens, UniProt P45984).
Chain of Mitogen-activated protein kinase 9 (P45984 whole entry): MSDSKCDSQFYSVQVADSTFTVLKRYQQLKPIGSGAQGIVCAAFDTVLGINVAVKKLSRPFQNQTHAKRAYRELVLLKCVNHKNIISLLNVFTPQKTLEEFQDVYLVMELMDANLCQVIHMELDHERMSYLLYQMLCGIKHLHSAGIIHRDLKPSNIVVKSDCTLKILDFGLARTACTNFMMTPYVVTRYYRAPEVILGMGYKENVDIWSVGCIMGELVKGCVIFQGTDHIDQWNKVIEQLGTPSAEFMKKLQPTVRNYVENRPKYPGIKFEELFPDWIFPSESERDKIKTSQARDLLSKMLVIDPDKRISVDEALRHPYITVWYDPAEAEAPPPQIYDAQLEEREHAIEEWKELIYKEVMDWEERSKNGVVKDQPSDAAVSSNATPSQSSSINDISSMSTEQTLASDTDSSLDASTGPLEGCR
Experiment [9] has as its target T4, Phosphatidylinositol 5-phosphate 4-kinase type-2 alpha (Homo sapiens, UniProt P48426).
T4 sequence (P48426 whole entry): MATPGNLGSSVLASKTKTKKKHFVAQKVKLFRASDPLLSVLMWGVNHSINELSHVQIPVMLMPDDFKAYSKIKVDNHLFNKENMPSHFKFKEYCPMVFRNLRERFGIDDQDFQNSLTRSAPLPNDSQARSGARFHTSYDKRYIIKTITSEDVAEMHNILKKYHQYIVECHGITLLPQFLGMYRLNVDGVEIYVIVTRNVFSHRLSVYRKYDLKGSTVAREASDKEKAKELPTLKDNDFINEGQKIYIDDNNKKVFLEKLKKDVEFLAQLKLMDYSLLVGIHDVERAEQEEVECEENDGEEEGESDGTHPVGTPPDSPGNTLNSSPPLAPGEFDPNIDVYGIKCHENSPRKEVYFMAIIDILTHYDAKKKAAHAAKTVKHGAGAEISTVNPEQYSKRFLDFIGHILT

Experiment [10] addresses 5'-AMP-activated protein kinase catalytic subunit alpha-1 (Homo sapiens, UniProt Q13131).
Experiment [11] addresses Serine/threonine-protein kinase 16 (Homo sapiens, UniProt O75716).

Chain of Dual specificity mitogen-activated protein kinase kinase 2 (P36507 whole entry): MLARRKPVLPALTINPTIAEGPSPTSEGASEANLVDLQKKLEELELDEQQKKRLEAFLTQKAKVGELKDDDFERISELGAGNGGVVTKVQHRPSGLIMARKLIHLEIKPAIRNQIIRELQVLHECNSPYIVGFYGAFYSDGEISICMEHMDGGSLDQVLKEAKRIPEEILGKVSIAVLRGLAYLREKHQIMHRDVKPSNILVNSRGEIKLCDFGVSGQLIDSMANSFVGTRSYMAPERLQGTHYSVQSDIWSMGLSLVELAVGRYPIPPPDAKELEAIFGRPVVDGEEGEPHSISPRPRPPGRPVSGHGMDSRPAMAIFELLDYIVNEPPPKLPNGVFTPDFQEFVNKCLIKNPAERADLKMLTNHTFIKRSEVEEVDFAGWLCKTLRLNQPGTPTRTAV
Chain of Serine/threonine-protein kinase 16 (O75716 whole entry): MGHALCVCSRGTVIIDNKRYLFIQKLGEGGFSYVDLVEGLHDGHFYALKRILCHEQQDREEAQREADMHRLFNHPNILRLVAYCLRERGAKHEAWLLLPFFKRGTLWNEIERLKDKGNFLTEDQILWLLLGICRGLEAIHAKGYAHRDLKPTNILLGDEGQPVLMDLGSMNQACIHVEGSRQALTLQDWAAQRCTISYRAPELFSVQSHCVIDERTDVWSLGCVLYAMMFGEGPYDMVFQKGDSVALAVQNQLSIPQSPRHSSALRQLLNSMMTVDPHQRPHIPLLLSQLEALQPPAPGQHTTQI
Chain of 5'-AMP-activated protein kinase catalytic subunit alpha-1 (Q13131 whole entry): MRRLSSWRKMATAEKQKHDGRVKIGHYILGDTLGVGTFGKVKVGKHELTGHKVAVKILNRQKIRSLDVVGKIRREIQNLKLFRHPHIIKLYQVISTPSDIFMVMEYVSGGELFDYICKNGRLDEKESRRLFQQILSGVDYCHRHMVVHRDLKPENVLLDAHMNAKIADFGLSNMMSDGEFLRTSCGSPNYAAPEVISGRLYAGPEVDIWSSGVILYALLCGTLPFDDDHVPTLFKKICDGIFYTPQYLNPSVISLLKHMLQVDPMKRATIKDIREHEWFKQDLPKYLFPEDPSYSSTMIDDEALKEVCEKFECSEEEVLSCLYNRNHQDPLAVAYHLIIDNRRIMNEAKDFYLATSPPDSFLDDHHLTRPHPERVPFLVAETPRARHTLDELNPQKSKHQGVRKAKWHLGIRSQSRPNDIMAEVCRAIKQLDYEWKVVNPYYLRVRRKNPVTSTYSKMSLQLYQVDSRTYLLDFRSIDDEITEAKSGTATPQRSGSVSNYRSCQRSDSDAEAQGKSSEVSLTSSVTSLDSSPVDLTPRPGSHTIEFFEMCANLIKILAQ
Chain of Mitogen-activated protein kinase 8 (P45983 whole entry): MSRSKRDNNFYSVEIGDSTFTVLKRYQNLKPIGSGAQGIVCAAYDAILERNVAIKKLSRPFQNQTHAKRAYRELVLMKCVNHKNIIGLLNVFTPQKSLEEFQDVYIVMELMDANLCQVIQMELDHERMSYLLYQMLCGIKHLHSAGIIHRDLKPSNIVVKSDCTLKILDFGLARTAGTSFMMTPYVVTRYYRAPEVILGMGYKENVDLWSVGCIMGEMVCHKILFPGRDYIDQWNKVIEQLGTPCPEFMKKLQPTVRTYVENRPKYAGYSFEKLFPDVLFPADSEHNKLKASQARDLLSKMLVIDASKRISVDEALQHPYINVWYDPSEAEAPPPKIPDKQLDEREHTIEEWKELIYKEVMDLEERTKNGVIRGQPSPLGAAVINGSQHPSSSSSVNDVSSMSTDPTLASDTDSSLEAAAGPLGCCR

Regarding `COc1cc2nccc(Oc3ccc(NC(=O)C4(C(=O)Nc5ccc(F)cc5)CC4)cc3)c2cc1OC` [CABOZANTINIB], the Kd in experiment [1], in experiment [2], in [3], in experiment [4], in [5] and in experiment [6] was > 30 µM (inactive) throughout. The Kd in experiment [7], in experiment [8], in experiment [9], in [10] and in [11] was > 30 µM (inactive) in each case.
Regarding `Cc1cc(Nc2nc(N[C@@H](C)c3ncc(F)cn3)ncc2Cl)n[nH]1` [AZD-1480], the Kd in experiment [1], in [2], in experiment [3], in experiment [4], in experiment [5] and in experiment [6] was > 30 µM (inactive) in each case. The Kd in [7], in experiment [8], in [9], in experiment [10] and in [11] was > 30 µM (inactive) each time.
In the case of `Cc1ccc(C(=O)Nc2ccc(Oc3cc4cnn(C)c4cc3-c3cn[nH]c3)c(F)c2)c(=O)n1-c1ccc(F)cc1` [MERESTINIB], the Kd in experiment [1], in experiment [2], in [3], in [4], in [5] and in experiment [6] was > 30 µM (inactive) each time. Also, the Kd in experiment [7], in experiment [8], in experiment [9], in experiment [10] and in experiment [11] was > 30 µM (inactive) in each case.
For `CNC(=O)c1cccc(-c2ccc3c(N4CCOC[C@@H]4C)nc(N4CCOC[C@@H]4C)nc3n2)c1` [VISTUSERTIB], the Kd in experiment [1], in [2], in experiment [3], in [4], in experiment [5] and in experiment [6] was > 30 µM (inactive) each time. Further, the Kd in experiment [7], in [8], in experiment [9], in experiment [10] and in [11] was > 30 µM (inactive) throughout.
`CC1(COc2ccc3c(c2)ncn3-c2ccc3cccc(N4CCC(N)CC4)c3n2)COC1` [CRENOLANIB]: the Kd in experiment [1] was > 30 µM (inactive); in experiment [2], 0.029 µM; in experiment [3] it was 0.821 µM (active); in experiment [4], > 30 µM (inactive); in [5] it was > 30 µM (inactive); in experiment [6], > 30 µM (inactive). The Kd in experiment [7] is > 30 µM (inactive); in [8], > 30 µM (inactive); in experiment [9], > 30 µM (inactive); in experiment [10] it was 1.25 µM (active); in [11], > 30 µM (inactive).
On to `COc1ccc2c(OCc3nnc4ccc(-c5ccccc5)nn34)ccnc2c1` [AMG-208], for which the Kd in experiment [1], in experiment [2], in [3], in experiment [4], in experiment [5] and in experiment [6] was > 30 µM (inactive) each time. Besides, the Kd in experiment [7], in experiment [8], in [9], in [10] and in [11] was > 30 µM (inactive) in each case.

As a reminder, the Kd is the constant that tells how readily two partners part at equilibrium.
